According to patent publication US7723070B2, “Overexpression of aminoacyl-tRNA synthetases for efficient production of engineered proteins containing amino acid analogues” (California Institute of Technology, priority 2000, dated 2010):
Where two headings read alike, the source gives them in different places.

Assays:
[1] = test system: E. coli strain CAG18491/pQE15/pREP4; assay: Translational activity: mDHFR synthesis in methionine-depleted cultures of conventional host; format: cell-based; details: analogue in place of methionine at the time of inoculation
[2] = test system: CAG18491/pQE15-MRS/pREP4; format: cell-based, E. coli; details: for level of protein synthesis in modified host over conventional host (Western blot, laser densitometry): 5-ml cultures, versus CAG18491/pQE15/pREP4; for yield of mDHFR from large-scale cultures: preliminary results
Procedure: Similarly, a bacterial host capable of overexpressing MetRS was produced by transforming E. coli strains CAG18491 (Novagen, Inc., Madison, Wis., USA), a methionine auxotroph, with repressor plasmid pREP4 and expression plasmid pQE15-MRS, as described for the B834(DE3) strain. A control bacterial host, which produces only mDHFR and normal cellular levels of MetRS, was prepared by transforming CAG18491 with pREP4 and pQE15.
(§1) Methionine analogues were synthesized via alkylation of diethylacetamidomalonate, as previously described (As described in Example I, infra; J. C. M. van Hest, D. A. Tirrell, FEBS Lett. 1998, 428, 68-70). Cultures of B834(DE3)/pQE15-MRS/pREP4 or B834(DE3)/pQE15/pREP4 or CAG18491/pQE15-MRS/pREP4 or CAG18491/pQE15/pREP4 in M9AA media were grown to an optical density of 0.90, and the cells were sedimented by centrifugation. The M9AA medium was prepared by supplementing sterile M9 medium with […] of each of the amino acids, 1 mM MgSO4, 0.2 wt % glucose, 1 mg/ml thiamine chloride, and […] calcium chloride. The antibiotics ampicillin and kanamycin were added at concentrations of 200 mg/l and 35 mg/l, respectively.
(§2) Cells were washed three times with M9 salts and resuspended to an optical density of 0.90 in M9 test media containing 19 amino acids plus 1) neither methionine nor analogue (negative control); 2) methionine (60 mg/liter, positive control); or 3) an analogue of interest (60 mg/liter). To test the effect of increasing the level of supplementation of the analogues, a set of experiments was also conducted in which the medium was supplemented with 500 mg/liter of methionine or the amino acid analogue. Expression of mDHFR was induced by addition of 0.4 mM isopropyl β-D-thiogalactopyranoside (IPTG), and protein synthesis was monitored after 4.5 hours.
Buffers and media were prepared according to standard protocols (Ausubel, F. M.; Brent, R.; Kingston, R. E.; Moore, D. D.; Seidman, J. G.; Smith, J. A.; Struhl, K., Eds. Current Protocols in Molecular Biology; John Wiley and Sons: New York, 1998). The E. coli methionine auxotroph CAG18491 (λ^−, rph-1, metE3079.:Tn10) was transformed with plasmids pQE15 and pREP4 (Qiagen), to obtain the expression host CAG18491/pQE15/pREP4. […] Both bacterial expression hosts produce the target protein mDHFR under control of a bacteriophage T5 promoter; the modified host also expresses extra copies of the MetRS gene under control of the constitutive metG p1 promoter (Dardel, F.; Panvert, M.; Fayat, G. Mol. Gen. Genet. 1990, 223, 121.133).
M9AA medium (100 mL) supplemented with 1 mM MgSO4 0.2 wt % glucose, 1 mg/L thiamine chloride and the antibiotics ampicillin (200 mg/L) and kanamycin (35 mg/L) was inoculated with the appropriate E. coli strain (CAG18491/pQE15/pREP4 or CAG18491/pQE15-MRS/pREP4) and grown overnight at 37° C. This culture was used to inoculate 900 mL M9AA medium supplemented as described. The cells were grown to an optical density at 600 nm (OD600) of approximately 0.9 and a medium shift was performed. The cells were sedimented for 10 min at 3030 g at 4° C., the supernatant was removed, and the cell pellet was washed twice with 600 mL of M9 medium. Cells were resuspended in 1000 mL of the M9AA medium described above, without methionine, and supplemented with 20 mg/L of the L-isomer of either 1, 2, 3, or 9. Protein synthesis was induced by addition of isopropyl-β-D-thiogalactopyranoside (IPTG) to a final concentration of 0.4 mM. Samples (1 mL) were collected after 4.5 hours, the OD600 measured, and cells resuspended with distilled water to yield a normalized OD600 of 20.

[3] = test system: B834(DE3)/pQE15-MRS/pREP4; format: cell-based, E. coli
Description: A gene encoding a mutant MetRS was removed from plasmid pBSM547W305F (D. Fourmy, Y. Mechulam, S. Brunie, S. Blanquet, G. Fayat, FEBS Lett. 1991, 292, 259-263) by treatment with restriction enzymes Sac I and Kpn I. The Sac I/Kpn I fragment (2450 bp) was ligated into the cloning vector pUC19-Nhelink, which was constructed to permit the cohesive ends of the mutant MetRS gene to be changed to Nhe I. The MetRS gene with Nhe I cohesive ends was then ligated into the unique Nhe I site of the plasmid pQE15 (Qiagen, Inc., Santa Clarita, Calif., USA) to yield plasmid pQE15-W305F (FIG. 20) (SEQ ID NO.: 2).
(§3) Plasmid DNA from all B834(DE3)/pQE15-MRS/pREP4 cultures used for protein expression experiments was sequenced to confirm that it encoded wild-type MetRS. […] The expression plasmid also encodes an N-terminal hexahistidine sequence for mDHFR which permits purification of the target protein by immobilized metal chelate affinity chromatography (The Qiagen Expressionist, 1992, p. 45). Furthermore, mDHFR contains 8 methionine residues which can be replaced by methionine analogues. A control bacterial host, which produces only mDHFR and normal cellular levels of MetRS, was prepared by transforming B834(DE3) with pREP4 and pQE15.
as §1, §2

[4] = test system: B834(DE3)/pQE15/pREP4; assay: Translational activity: mDHFR synthesis in control host; format: cell-based, E. coli
Description: as §3
Methionine analogues were synthesized via alkylation of diethylacetamidomalonate, as previously described (As described in Example I, infra; J. C. M. van Hest, D. A. Tirrell, FEBS Lett. 1998, 428, 68-70). […]
Cells were washed three times with M9 salts and resuspended to an optical density of 0.90 in M9 test media containing 19 amino acids plus 1) neither methionine nor analogue (negative control); 2) methionine (60 mg/liter, positive control); or 3) an analogue of interest (60 mg/liter). […] Expression of mDHFR was induced by addition of 0.4 mM isopropyl β-D-thiogalactopyranoside (IPTG), and protein synthesis was monitored after 4.5 hours.

[5] = test system: E. coli cells; details: antagonist for methionine; cited from earlier work

For `C#CCCC(N)C(=O)O` (racemic) [Analogue 3, DL-homopropargylglycine], the “growth of cultures in minimal media with methionine replaced by analogue at inoculation” value [1] was “did not grow” and the “level of protein synthesis in modified host over conventional host (Western blot, laser densitometry)” value [2] was “does not exhibit higher levels of protein synthesis”.

In the case of `C/C=C/CC(N)C(=O)O` (racemic) [Analogue 5, trans-2-amino-4-hexenoic acid], the “incorporation of the analogue at the initiator position (N-terminal sequencing)” value [3] was 96±2%, the “mDHFR produced relative to cultures supplemented with methionine” value [3] was 23% and the “overall extent of incorporation of the analogue (amino acid analysis)” value [3] was 91±2%. For the same compound, the “replacement of methionine (integration of NMR spectrum)” value [3] was 90±6%, the “mDHFR expression (SDS-PAGE)” value ([3]; 60 mg/L) was “strong induction of mDHFR” and the “methionine content by amino acid analysis” value ([3]; expected value 3.8 mol %) was 0.3 mol %. The “mDHFR expression (SDS-PAGE)” value ([4]; 60 mg/L) was “not detected”.

In the case of 2-butynylglycine [Analogue 11], the “mDHFR expression (SDS-PAGE)” value ([2]; 60 mg/L) was “strong induction of mDHFR”.

In the case of `C/C=C\CC(N)C(=O)O` (racemic) [Analogue 4, cis-2-amino-4-hexenoic acid], the “effect on growth of E. coli cells” value [5] is given as “inhibiting the growth” and the “mDHFR expression (SDS-PAGE)” value ([2]; 500 mg/liter) is given as “able to produce the target protein”.

In the case of `CCCC[C@H](N)C(=O)O` [Analogue 9, L-norleucine], the “level of protein synthesis in modified host over conventional host (Western blot, laser densitometry)” value [2] was “approximately 1.4 fold” and the “yield of mDHFR from large-scale cultures” value [2] was “approximately 35 mg/L”.

For `CCC[C@H](N)C(=O)O` [Analogue 8, L-norvaline], the “mDHFR expression (SDS-PAGE)” value ([2]; 500 mg/liter) was “able to produce the target protein”.

For `CSCC[C@H](N)C(=O)O` [Analogue 1, L-methionine, reference compound], the Protein yields ([3]; supplemented cultures) was “approximately 35 mg/liter”, the Protein yields ([4]; supplemented cultures) was “approximately 35 mg/liter” and the “level of protein synthesis in modified host over conventional host (Western blot, laser densitometry)” value [2] was “does not exhibit higher levels of protein synthesis”.

With `C=CCCC(N)C(=O)O` (racemic) [Analogue 2, DL-2-amino-5-hexenoic acid] the “growth of cultures in minimal media with methionine replaced by analogue at inoculation” value [1] was “did not grow”, the “level of protein synthesis in modified host over conventional host (Western blot, laser densitometry)” value [2] was “approximately 1.5 fold” and the “yield of mDHFR from large-scale cultures” value [2] was “approximately 35 mg/L”.

For `C=CCC(N)C(=O)O` (centres unmarked) [Analogue 12, allylglycine], the “mDHFR expression (SDS-PAGE)” value ([2]; 500 mg/liter) was “able to produce the target protein”.

For `CCCCCC(N)C(=O)O` (racemic) [Analogue 7, DL-2-aminoheptanoic acid], the “mDHFR expression (SDS-PAGE)” value ([2]; 500 mg/liter) was “able to produce the target protein”.
